Measured values from patent US7265152B2 (ViroPharma Incorporated, priority 2002, dated 2007).
Read-outs that look alike come from different tables or passages of the source.

Tests used:
HCV NS5B = molecular target: T1, HCV NS5B (Hepatitis C virus genotype 1b, UniProt Q9WMX2); assay: Inhibition of viral RNA-dependent RNA polymerase (RdRp), in vitro biochemical assay; design: species or system HCV genotype 1b virus (BB7); details: HCV NS5B RdRp, read-out: HCV pol-BB7 IC50
T1 construct: fusion protein, of which the carboxyl terminal 21 amino acids were removed to enhance its solubility; His tag (GSHHHHHH); made in house; host or cells: E. coli
Method in brief: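 IC50 values are the concentrations that halve in vitro RNA synthesis by HCV NS5B polymerase. The enzyme was a C-terminally truncated (Δ21), His-tagged genotype 1b (BB7 consensus) protein purified from E. coli.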

[1] = tested on: HCV replicon (BB7 sequence) in Huh-7-Clone A cells; assay: HCV replicon assay: ELISA of NS5A protein in replicon-containing cells (Inhibition of Viral RNA Replication); format: cell-based; details: read-out: Replicon
Method in brief: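 EC50 taken from an 8-point serially diluted dose curve, with NS5A level as read-out: fixed cells probed with primary monoclonal and HRP-conjugated secondary, TMB developed 30 min, OD 650 nm. Compound exposure 72 h in Huh-7-Clone A replicon cells (BB7 sequence).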

[2] = Hepatitis C virus, ranges of EC50 in HCV replicon assay
[3] = Hepatitis C virus, HCV replicon, range of EC50

Compound | IC50 (HCV NS5B; BB7 genotype 1b) | EC50 [1, 2] | IC50 (HCV NS5B; BB7, reported as range class) | EC50 [1, 3] | EC50 ([1]; HCV replicon, range of EC50)
CNC(=O)c1c(-c2ccc(F)cc2)oc2cc(-c3c(C)noc3C)c(OC(C)C)cc12 [Example 159, 6-(3,5-Dimethyl-isoxazol-4-yl)-2-(4-fluoro-phenyl)-5-isopropoxy-benzofuran-3-carboxylic acid methylamide] | ≤ 0.5 µM | < 1 µM | – | – | –
CNC(=O)c1c(-c2ccc(F)cc2)oc2cc(C=O)c(OC(C)C)cc12 [Example 160, 2-(4-Fluoro-phenyl)-6-formyl-5-isopropoxy-benzofuran-3-carboxylic acid methylamide] | ≤ 0.5 µM | < 30 µM | – | – | –
CNC(=O)c1c(-c2ccc(F)cc2)oc2cc(-c3ccc(F)nc3)c(OC(C)C)cc12 [Example 161, 2-(4-Fluoro-phenyl)-6-(6-fluoro-pyridin-3-yl)-5-isopropoxy-benzofuran-3-carboxylic acid methylamide] | ≤ 0.5 µM | < 10 µM | – | – | –
CNC(=O)c1c(-c2ccc(F)cc2)oc2cc(CNS(C)(=O)=O)c(OC(C)C)cc12 [Example 162, 2-(4-Fluoro-phenyl)-5-isopropoxy-6-(methanesulfonylamino-methyl)-benzofuran-3-carboxylic acid methylamide] | 0.5 to 5 µM | < 10 µM | – | – | –
CNC(=O)c1c(-c2ccc(F)cc2)oc2cc(N(C3CCCC3)S(C)(=O)=O)c(OC(C)C)cc12 [Example 163, 6-(Cyclopentyl-methanesulfonyl-amino)-2-(4-fluoro-phenyl)-5-isopropoxy-benzofuran-3-carboxylic acid methylamide] | ≤ 0.5 µM | < 1 µM | – | – | –
CNC(=O)c1c(-c2ccc(F)cc2)oc2cc(N(CCO)S(C)(=O)=O)c(OC(C)C)cc12 [Example 164, 2-(4-Fluoro-phenyl)-6-[(2-hydroxy-ethyl)-methanesulfonyl-amino]-5-isopropoxy-benzofuran-3-carboxylic acid methylamide] | ≤ 0.5 µM | < 10 µM | – | – | –
CNC(=O)c1c(-c2ccc(F)cc2)oc2cc(OC)c(O)cc12 [Example 165, 2-(4-Fluoro-phenyl)-5-hydroxy-6-methoxy-benzofuran-3-carboxylic acid methylamide] | 5 to 30 µM | > 30 µM | – | – | –
CCOc1cc2c(C(=O)NC)c(-c3ccc(F)cc3)oc2cc1N1CCOCC1 [Example 166, 5-Ethoxy-2-(4-fluoro-phenyl)-6-morpholin-4-yl-benzofuran-3-carboxylic acid methylamide] | 0.5 to 5 µM | < 10 µM | – | – | –
CNC(=O)c1c(-c2ccc(F)cc2)oc2cc(N3CCOCC3)c(OCc3ccc(F)cc3)cc12 [Example 167, 5-(4-Fluoro-benzyloxy)-2-(4-fluoro-phenyl)-6-morpholin-4-yl-benzofuran-3-carboxylic acid methylamide] | 0.5 to 5 µM | < 1 µM | – | – | –
CNC(=O)c1c(-c2ccc(F)cc2)oc2cc(-c3cnco3)c(OC(C)C)cc12 [Example 168, 2-(4-Fluoro-phenyl)-5-isopropoxy-6-oxazol-5-yl-benzofuran-3-carboxylic acid methylamide] | ≤ 0.5 µM | < 10 µM | – | – | –
CNC(=O)c1c(-c2ccc(F)cc2)oc2cc(S(=O)(=O)N3CCC(O)CC3)c(OC(C)C)cc12 [Example 169, 2-(4-Fluoro-phenyl)-6-(4-hydroxy-piperidine-1-sulfonyl)-5-isopropoxy-benzofuran-3-carboxylic acid methylamide] | ≤ 0.5 µM | < 1 µM | – | – | –
CNC(=O)c1c(-c2ccc(F)cc2)oc2cc(N3CCC(F)(F)CC3)c(OC(C)C)cc12 [Example 170, 6-(4,4-Difluoro-piperidin-1-yl)-2-(4-fluoro-phenyl)-5-isopropoxy-benzofuran-3-carboxylic acid methylamide] | 5 to 30 µM | < 1 µM | – | – | –
CNC(=O)c1c(-c2ccc(F)cc2)oc2cc(N3CCC(F)CC3)c(OC(C)C)cc12 [Example 171, 2-(4-Fluoro-phenyl)-6-(4-fluoro-piperidin-1-yl)-5-isopropoxy-benzofuran-3-carboxylic acid methylamide] | 0.5 to 5 µM | < 1 µM | – | – | –
CNC(=O)c1c(-c2ccc(F)cc2)oc2cc(N3CCOCC3)c(OC(F)F)cc12 [Example 172, 5-Difluoromethoxy-2-(4-fluoro-phenyl)-6-morpholin-4-yl-benzofuran-3-carboxylic acid methyalmide] | – | – | ≤ 0.5 µM | < 1 µM | –
CNC(=O)c1c(-c2ccc(F)cc2)oc2cc(N3CCOCC3)c(OC3CCCC3)cc12 [Example 173, 5-Cyclopentyloxy-2-(4-fluoro-phenyl)-6-morpholin-4-yl-benzofuran-3-carboxylic acid mehtylamide] | – | – | ≤ 0.5 µM | < 1 µM | –
CNC(=O)c1c(-c2ccc(F)cc2)oc2cc(NS(C)(=O)=O)c(O)cc12 [Example 174, 2-(4-Fluoro-phenyl)-5-hydroxy-6-methanesulfonylamino-benzofuran-3-carboxylic acid methylamide] | – | – | 0.5 to 5 µM | < 30 µM | –

Compound | IC50 (HCV NS5B; BB7 genotype 1b) | EC50 [1, 2] | IC50 (HCV NS5B; BB7, reported as range class) | EC50 [1, 3] | EC50 ([1]; HCV replicon, range of EC50)
CNC(=O)c1c(-c2ccc(F)cc2)oc2cc(S(=O)(=O)N3CCSCC3)c(OC(C)C)cc12 [Example 175, 2-(4-Fluoro-phenyl)-5-isopropoxy-6-(thiomorpholine-4-sulfonyl)-benzofuran-3-carboxylic acid methylamide] | – | – | ≤ 0.5 µM | < 1 µM | –
CNC(=O)c1c(-c2ccc(F)cc2)oc2cc(S(=O)(=O)N3CCC(O)C3)c(OC(C)C)cc12 (centres unmarked) [Example 176, 2-(4-Fluoro-phenyl)-6-(3-hydroxy-pyrrolidine-1-sulfonyl)-5-isopropoxy-benzofuran-3-carboxylic acid methylamide] | – | – | ≤ 0.5 µM | < 1 µM | –
CNC(=O)c1c(-c2ccc(F)cc2)oc2cc(-c3ccncc3)c(OC(C)C)cc12 [Example 177, 2-(4-Fluoro-phenyl)-5-isopropoxy-6-pyridin-4-yl-benzofuran-3-carboxylic acid methylamide] | – | – | ≤ 0.5 µM | < 10 µM | –
CNC(=O)c1c(-c2ccc(F)cc2)oc2cc(-c3cccc(S(C)(=O)=O)c3)c(OC(C)C)cc12 [Example 178, 2-(4-Fluoro-phenyl)-5-isopropoxy-6-(3-methanesulfonyl-phenyl)-benzofuran-3-carboxylic acid methylamide] | – | – | ≤ 0.5 µM | < 10 µM | –
CNC(=O)c1c(-c2ccc(F)cc2)oc2cc(-c3ccc(S(C)(=O)=O)cc3)c(OC(C)C)cc12 [Example 179, 2-(4-Fluoro-phenyl)-5-isopropoxy-6-(4-methanesulfonyl-phenyl)-benzofuran-3-carboxylic acid methylamide] | – | – | ≤ 0.5 µM | < 10 µM | –
CNC(=O)c1c(-c2ccc(F)cc2)oc2cc(N3CCOCC3)c(OCCCl)cc12 [Example 180, 5-(2-Chloro-ethoxy)-2-(4-fluoro-phenyl)-6-morpholin-4-yl-benzofuran-3-carboxylic acid methylamide] | – | – | ≤ 0.5 µM | > 30 µM | –
CNC(=O)c1c(-c2ccc(F)cc2)oc2cc(OCc3ccccc3)c(OC)cc12 [Example 181, 6-Benzyloxy-2-(4-fluoro-phenyl)-5-methoxy-benzofuran-3-carboxylic acid methylamide] | – | – | ≤ 0.5 µM | < 10 µM | –
CNC(=O)c1c(-c2ccc(F)cc2)oc2cc(N)c(O)cc12 [Example 182, 6-Ainino-2-(4-fluoro-phenyl)-5-hydroxy-benzofuran-3-carboxylic acid methylamide] | – | – | 0.5 to 5 µM | < 30 µM | –
CNC(=O)c1c(-c2ccc(F)cc2)oc2cc(OCc3ccccc3)c(OCc3ccccc3)cc12 [Example 183, 5,6-Bis-benzyloxy-2-(4-fluoro-phenyl)-benzofuran-3-carboxylic acid methylamide] | – | – | > 30 µM | < 10 µM | –
CNC(=O)c1c(-c2ccc(F)cc2)oc2cc(-c3noc(C(F)(F)F)n3)c(OC(C)C)cc12 [Example 184, 2-(4-Fluoro-phenyl)-5-isopropoxy-6-(5-trifluoromethyl-[1,2,4]oxadiazol-3-yl)-benzofuran-3-carboxylic acid methylamide] | – | – | 0.5 to 5 µM | < 30 µM | –
CNC(=O)c1c(-c2ccc(F)cc2)oc2cc(N3CCN(C(N)=O)CC3)c(OC(C)C)cc12 [Example 185, [2-(4-Fluoro-phenyl)-5-isopropoxy-3-methylcarbamoyl-benzofuran-6-yl]-piperazine-1-carboxylic acid amide] | – | – | 5 to 30 µM | – | < 10 µM
CNC(=O)c1c(-c2ccc(F)cc2)oc2cc(N3CCSCC3)c(OC(C)C)cc12 [Example 186, 2-(4-Fluoro-phenyl)-5-isopropoxy-6-thiomorpholin-4-yl-benzofuran-3-carboxylic acid methylamide] | – | – | ≤ 0.5 µM | < 1 µM | –
CNC(=O)c1c(-c2ccc(F)cc2)oc2cc(C(=O)O)c(OC(C)C)cc12 [Example 187, 2-(4-Fluoro-phenyl)-5-isopropoxy-3-methylcarbamoyl-benzofuran-6-carboxylic acid] | – | – | 5 to 30 µM | < 10 µM | –
CNC(=O)c1c(-c2ccc(F)cc2)oc2cc(N3CC[S+]([O-])CC3)c(OC(C)C)cc12 [Example 188, 2-(4-Fluoro-phenyl)-5-isopropoxy-6-(1-oxo-thiomorpholin-4-yl)-benzofuran-3-carboxylic acid methylamide] | – | – | 5 to 30 µM | < 10 µM | –
CNC(=O)c1c(-c2ccc(F)cc2)oc2cc(N(CC(=O)O)S(C)(=O)=O)c(OC(C)C)cc12 [Example 189, {[2-(4-Fluoro-phenyl)-5-isopropoxy-3-methylcarbamoyl-benzofuran-6-yl]-methanesulfonyl-amino}-acetic acid] | – | – | 0.5 to 5 µM | < 1 µM | –
